Measured values reported in the supplement of paper PMC11208160.

Assay: recombinant barcode read abundance after kanamycin selection (control-corrected) (log10(CPM+1)); higher = more efficient recombination; sequences stand for … in AGTGCAGAGAAAATCGGCCAGTTTTCTCTGCCTGCAGTCCGCATGCCGT…AGATTTATGCAGCGGACTGCCTTTCTCCCAAAGTGATAAACCGGACAGTATCATGGACCGGTTTTCCCGGTAATCCGTATTTGCAAGGTTGGTTTCACT; site = the 11-nt target
Outline: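 Oligos holding a promoter, target, barcode and the J23119-driven first 104 bases of the bridge RNA were Gibson-cloned into a vector that supplied the other 73 bp plus a T7-inducible recombinase. This library was co-electroporated with a donor plasmid into E. coli. Two replicates went on chloramphenicol/ampicillin LB agar (control) and two on chloramphenicol/ampicillin/kanamycin with 0.1 mM IPTG. Recombination efficiency is read from averaged, control-corrected barcode counts per million at recombinant junctions, reported as log10(CPM+1).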
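Further: IS621 recombinase and bridge RNA in Escherichia coli cells.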

Sequence	recombinant barcode read abundance (log10)
CACCGTTCTTGGGTTCTAACCTGTTGCTT (site CACCGTTCTAA)	0.552
CACCGTTCTTGGGTTCTAACCTGTTGCTT (site CATCGCTCTAA)	0.0503
CACGAGACTTGGGTTCTAACCTGTTGCCT (site CACGAGACTAG)	2.05
CACGAGACTTGGGTTCTAACCTGTTGCCT (site CACGAGCCTAG)	0.0856
CACGAGACTTGGGTTCTAACCTGTTGCCT (site CACGAGGCTAG)	1.02
CACGAGACTTGGGTTCTAACCTGTTGCCT (site CACGAGTCTAG)	0.424
CACGAGTCTTGGGTTCTAACCTGTTGCCT (site CACGAGACTAG)	0.0562
CACGAGTCTTGGGTTCTAACCTGTTGCCT (site CACGAGCCTAG)	0.24
CACGAGTCTTGGGTTCTAACCTGTTGCCT (site CACGAGGCTAG)	0.109
CACGAGTCTTGGGTTCTAACCTGTTGCCT (site CACGAGTCTAG)	1.57
CACGCCTCTTGGGTTCTAACCTGTTGCCT (site AACGCCTCTAG)	0.116
CACGCCTCTTGGGTTCTAACCTGTTGCCT (site CACGCCTCTAG)	1.88
CACGCCTCTTGGGTTCTAACCTGTTGCCT (site GACGCCTCTAG)	0.385
CACGCCTCTTGGGTTCTAACCTGTTGCCT (site TACGCCTCTAG)	0.0712
CACGCGCCTTGGGTTCTAACCTGTTGCGG (site CACGCGCCTCC)	1.84
CACGCGCCTTGGGTTCTAACCTGTTGCGG (site GCTCATACTAG)	0.00629
CACGGGACTTGGGTTCTAACCTGTTGCAG (site CACGGGACTCT)	2.58
CACGGGACTTGGGTTCTAACCTGTTGCAG (site TCGAACGCTAA)	0.111
CACGGGGCTTGGGTTCTAACCTGTTGCCT (site ATGCTACCTCC)	0.0666
CACGGGGCTTGGGTTCTAACCTGTTGCCT (site CACGGGGCTAG)	0.697
CACGGTCCTTGGGTTCTAACCTGTTGCCA (site ATGCTATCTCT)	0.0164
CACGGTCCTTGGGTTCTAACCTGTTGCCA (site CACGGTCCTTG)	1.31

Sequence	recombinant barcode read abundance (log10)
CACGGTCCTTGGGTTCTAACCTGTTGCGG (site AACGCTCCTCC)	0.0287
CACGGTCCTTGGGTTCTAACCTGTTGCGG (site CACGGTCCTCC)	3.16
CACGTTACTTGGGTTCTAACCTGTTGCCT (site CACGGAACTAG)	0.0559
CACGTTACTTGGGTTCTAACCTGTTGCCT (site CACGTTACTAG)	0.628
CACTAGCCTTGGGTTCTAACCTGTTGCGG (site CACTAGCCTCC)	2.41
CACTAGCCTTGGGTTCTAACCTGTTGCGG (site CACTATCCTCC)	0.133
CACTGCTCTTGGGTTCTAACCTGTTGCCT (site CACTGATCTAG)	0.2
CACTGCTCTTGGGTTCTAACCTGTTGCCT (site CACTGCTCTAG)	1.58
CACTGCTCTTGGGTTCTAACCTGTTGCCT (site CACTGGTCTAG)	0.151
CACTGCTCTTGGGTTCTAACCTGTTGCCT (site CACTGTTCTAG)	0.173
CACTGGACTTGGGTTCTAACCTGTTGCCT (site CAATGGACTAG)	0.155
CACTGGACTTGGGTTCTAACCTGTTGCCT (site CACTGGACTAG)	1.04
CACTGGACTTGGGTTCTAACCTGTTGCCT (site CAGTGGACTAG)	0.42
CACTGGACTTGGGTTCTAACCTGTTGCCT (site CATTGGACTAG)	0.286
CACTTAACTTGGGTTCTAACCTGTTGCCA (site CACTTAACTTG)	0.0764
CACTTAACTTGGGTTCTAACCTGTTGCCA (site TGACAGTCTCT)	0.0672
CACTTAACTTGGGTTCTAACCTGTTGCCT (site CACTTAACTAG)	0.8
CACTTAACTTGGGTTCTAACCTGTTGCCT (site CACTTACCTAG)	0
CACTTAACTTGGGTTCTAACCTGTTGCCT (site CACTTAGCTAG)	0.0439
CACTTAACTTGGGTTCTAACCTGTTGCCT (site CACTTATCTAG)	0
CACTTACCTTGGGTTCTAACCTGTTGCCT (site CACTTAACTAG)	0.0847
CACTTACCTTGGGTTCTAACCTGTTGCCT (site CACTTACCTAG)	0.742

Sequence	recombinant barcode read abundance (log10)
CACTTACCTTGGGTTCTAACCTGTTGCCT (site CACTTAGCTAG)	0.00951
CACTTACCTTGGGTTCTAACCTGTTGCCT (site CACTTATCTAG)	0.0355
CACTTAGCTTGGGTTCTAACCTGTTGCCT (site CACTTAACTAG)	0.559
CACTTAGCTTGGGTTCTAACCTGTTGCCT (site CACTTACCTAG)	0.181
CACTTAGCTTGGGTTCTAACCTGTTGCCT (site CACTTAGCTAG)	0.269
CACTTAGCTTGGGTTCTAACCTGTTGCCT (site CACTTATCTAG)	0.0252
CACTTGACTTGGGTTCTAACCTGTTGCCT (site CACTTGACTAG)	1.2
CACTTGACTTGGGTTCTAACCTGTTGCCT (site CACTTGCCTAG)	0.213
CACTTGACTTGGGTTCTAACCTGTTGCCT (site CACTTGGCTAG)	0.137
CACTTGACTTGGGTTCTAACCTGTTGCCT (site CACTTGTCTAG)	0.0323
CACTTGACTTGGGTTCTAACCTGTTGCTT (site CACTTGACTAA)	0.331
CACTTGACTTGGGTTCTAACCTGTTGCTT (site CGCTTGTCTAA)	0.075
CACTTGTCTTGGGTTCTAACCTGTTGCCT (site CACTTGACTAG)	0.0529
CACTTGTCTTGGGTTCTAACCTGTTGCCT (site CACTTGCCTAG)	0.0539
CACTTGTCTTGGGTTCTAACCTGTTGCCT (site CACTTGGCTAG)	0.283
CACTTGTCTTGGGTTCTAACCTGTTGCCT (site CACTTGTCTAG)	1.7
CAGACGCCTTGGGTTCTAACCTGTTGCAG (site CACACTCCTCT)	0.039
CAGACGCCTTGGGTTCTAACCTGTTGCAG (site CAGACGCCTCT)	1.38
CAGACTCCTTGGGTTCTAACCTGTTGCCT (site CAGACTCCTAG)	0.214
CAGACTCCTTGGGTTCTAACCTGTTGCCT (site TAGACTACTAG)	0.186
CAGAGCACTTGGGTTCTAACCTGTTGCCT (site AAGAGCACTAG)	0.107
CAGAGCACTTGGGTTCTAACCTGTTGCCT (site CAGAGCACTAG)	1.2
